In ChEMBL document CHEMBL3751825, “Synthesis and protective effect of new ligustrazine derivatives against CoCl2-induced neurotoxicity in differentiated PC12 cells. Part 2” (Medchemcomm, 2015):

Assay: Neuroprotective activity against cobalt chloride-induced neurotoxicity in rat differentiated PC12 cells
Format: functional, cell-based
Conditions: pc-12

Row | Compound | EC50
1 | COc1ccc(/C=C/C(=O)OCc2nc(C)c(C)nc2C)c(OC)c1OC | 0.719 µM
2 | COc1ccc(/C=C/C(=O)OCc2nc(C)c(C)nc2C)cc1 | < 24 µM
3 | COc1cccc(/C=C/C(=O)OCc2nc(C)c(C)nc2C)c1 | < 24 µM
4 | C=CCc1ccc(OCc2nc(C)c(C)nc2C)c(OC)c1 | 4.62 µM
5 | COc1ccccc1/C=C/C(=O)OCc1nc(C)c(C)nc1C | < 24 µM
6 | COc1ccc(OC)c(/C=C/C(=O)OCc2nc(C)c(C)nc2C)c1 | < 24 µM
7 | COc1ccc(/C=C/C(=O)OCc2nc(C)c(C)nc2C)cc1OC | < 24 µM
8 | COc1ccc(C(C)=O)c(OCc2nc(C)c(C)nc2C)c1 | < 15 µM
9 | COc1cc(/C=C/C(=O)OCc2nc(C)c(C)nc2C)cc(OC)c1OC | < 24 µM
10 | Cc1nc(C)c(COC(=O)c2cc(OCc3nc(C)c(C)nc3C)c(OCc3nc(C)c(C)nc3C)c(OCc3nc(C)c(C)nc3C)c2)nc1C | > 100 µM
11 | COc1cccc(/C=C/C(=O)OCc2nc(C)c(C)nc2C)c1OC | < 24 µM

Assay: Neuroprotective activity against cobalt chloride-induced neurotoxicity in rat NGF-differentiated PC12 cells assessed as increase of neurite-bearing cell level at 60 uM after 12 hrs
Conditions: not given

Row | Compound | Activity
12 | COc1ccc(/C=C/C(=O)OCc2nc(C)c(C)nc2C)c(OC)c1OC | 50.8%
